1 molecule from paper PMC13184981, “Discovery and Development of a Potent LIMK2 Isoform-Specific Degrader” (ACS Chemical Biology, 2026) can be followed below.

The structures appear in SMILES notation.

The target in one series is T1, LIMK1 (Homo sapiens, UniProt P53667).
T1 construct: host or cells: HEK293T
The experiment in a line: Western blot of endogenous LIMK1 in HuCCT1 cells. Type of series: cell-based. The note with it: HuCCT1, 6 h treatment. The protocol:
HuCCT1 cell line was cultured in Roswell Park Memorial Institute (RPMI) 1640 medium supplemented with GlutaMAX, 10% fetal bovine serum (FBS), and 1% penicillin/streptomycin. The cell line was maintained in an incubator with 5% CO2 at 37 °C. For the treatment, 3 × 10^5 cells were plated and treated with the compounds and DMSO as the control for 6 h. The cells were then lysed using RIPA buffer (50 mM Tris-HCl pH 7.4, 150 mM NaCl, 1% Triton X-100, 1% NaDOC, 0.1% SDS, 1 mM EDTA), freshly supplemented with protease and phosphatase inhibitor cocktails (Sigma-Aldrich, Darmstadt, Germany). After 1 h incubation on ice, the lysates were centrifuged for 30 min at […], and the protein-containing supernatant was collected. The protein concentrations were determined using Protein Assay Dye Reagent Concentrate (Bradford, Bio-Rad, Hercules, CA, USA) and Pre-Diluted Protein Assay Standards: Bovine Serum Albumin (BSA) Set (Thermo Fisher Scientific, Darmstadt, Germany). Then, equal amounts of protein was mixed with Roti-Load 1 dye (Carl Roth, Karlsruhe, Germany) and 4x Laemmli Buffer (Bio-Rad, Hercules, CA, USA), denatured at 95 °C, and run on NuPAGE 4–12% bis-Tris gels (Thermo Fisher Scientific). Proteins were blotted on methanol-activated PVDF Transfer Membranes (Thermo Fisher Scientific) using the wet transfer method with the transfer buffer (Thermo Fisher Scientific) and 20% methanol. […]
On the technique in general: In western blotting, separated proteins are transferred to a membrane and probed.

For series [1], the target named is T2, NanoLuc-tagged LIMK2 and Halo-tagged CRBN (Homo sapiens, UniProt P53671+Q96SW2).
T2 construct: CRBN vector in-house NV1531; host or cells: HEK293T
The experiment in a line: NanoBRET cellular ternary complex formation, LIMK2. The series is classed as cell-based. The source says:
Next, we assessed ternary complex formation for the parent and lead PROTACs in live cells using the NanoBRET proximity assay. A ternary complex assay system was established using NanoLuc-tagged LIMKs and Halo-tagged CRBN. Formation of the ternary complex upon PROTAC addition was quantified by measuring the BRET signal. […] However, they differed in the strength of the ternary complex. […] We also confirmed the differences in ternary complex strength using the orthogonal PROXICapture approach, in which MOLT-4 cell lysate was passed over immobilized FLAG-tagged CRBN preincubated with THNAN69.
Gene encoding LIMK1 (Promega, NV3391) and LIMK2 (Promega, NV1531) proteins cloned in frame with NanoLuc fusion tag at the C-Terminus and gene encoding cereblon (generated in-house) cloned in frame with Halo Tag at the N-Terminus, were used to measure the end-point ternary complex formation between the PROTACs and LIMK1 and LIMK2, respectively. […] To measure BRET, NanoBRET NanoGlo Substrate + Extracellular NanoLuc Inhibitor (Promega, N2162) was added to cells as per the manufacturer’s protocol, and filtered luminescence was measured on a PHERAstar FSX plate reader (BMG Labtech) equipped with a luminescence filter pair (450 nm BP filter (donor) and 610 nm LP filter (acceptor)). […]
For orientation: In BRET a luciferase serves as donor, and the signal depends on an acceptor being close.

Another series has as its system HEK293T cells. The experiment in a line: CellTiter-Glo 2.0 cell viability assay. Type of series: cell-based, human. To be noted: 24-h treatment, 25 nM to 20 µM. The protocol:
The effects of the PROTAC on cell viability were determined using the CellTiter-Glo 2.0 Cell Viability Assay (Promega, G9241) following the manufacturer’s protocol. […] 40 μL of assay reagent was added and incubated for 10 min at RT. Filtered luminescence was measured using a PHERAstar plate reader (BMG Labtech), and data were analyzed using GraphPad Prism 9.
On the technique in general: In ATP-based viability assays light output follows the ATP content of the culture.

T1 sequence (P53667 whole entry): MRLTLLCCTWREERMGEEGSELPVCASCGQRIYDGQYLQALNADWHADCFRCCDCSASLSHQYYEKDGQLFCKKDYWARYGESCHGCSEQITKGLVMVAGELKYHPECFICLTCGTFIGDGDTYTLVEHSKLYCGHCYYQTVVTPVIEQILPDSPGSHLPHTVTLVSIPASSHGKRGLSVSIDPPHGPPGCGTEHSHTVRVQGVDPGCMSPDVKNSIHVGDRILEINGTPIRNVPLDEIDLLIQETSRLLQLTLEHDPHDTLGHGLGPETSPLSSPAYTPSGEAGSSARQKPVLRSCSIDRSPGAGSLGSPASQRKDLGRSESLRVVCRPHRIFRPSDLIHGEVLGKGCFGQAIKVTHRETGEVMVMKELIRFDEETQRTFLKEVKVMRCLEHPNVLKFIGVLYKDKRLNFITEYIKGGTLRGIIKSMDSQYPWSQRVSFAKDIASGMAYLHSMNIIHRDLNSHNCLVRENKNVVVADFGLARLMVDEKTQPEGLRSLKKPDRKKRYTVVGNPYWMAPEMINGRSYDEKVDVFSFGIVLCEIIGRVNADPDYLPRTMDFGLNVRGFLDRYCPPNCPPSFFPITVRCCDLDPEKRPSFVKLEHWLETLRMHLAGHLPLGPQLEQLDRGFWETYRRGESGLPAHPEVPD
T2 sequence (P53671 whole entry): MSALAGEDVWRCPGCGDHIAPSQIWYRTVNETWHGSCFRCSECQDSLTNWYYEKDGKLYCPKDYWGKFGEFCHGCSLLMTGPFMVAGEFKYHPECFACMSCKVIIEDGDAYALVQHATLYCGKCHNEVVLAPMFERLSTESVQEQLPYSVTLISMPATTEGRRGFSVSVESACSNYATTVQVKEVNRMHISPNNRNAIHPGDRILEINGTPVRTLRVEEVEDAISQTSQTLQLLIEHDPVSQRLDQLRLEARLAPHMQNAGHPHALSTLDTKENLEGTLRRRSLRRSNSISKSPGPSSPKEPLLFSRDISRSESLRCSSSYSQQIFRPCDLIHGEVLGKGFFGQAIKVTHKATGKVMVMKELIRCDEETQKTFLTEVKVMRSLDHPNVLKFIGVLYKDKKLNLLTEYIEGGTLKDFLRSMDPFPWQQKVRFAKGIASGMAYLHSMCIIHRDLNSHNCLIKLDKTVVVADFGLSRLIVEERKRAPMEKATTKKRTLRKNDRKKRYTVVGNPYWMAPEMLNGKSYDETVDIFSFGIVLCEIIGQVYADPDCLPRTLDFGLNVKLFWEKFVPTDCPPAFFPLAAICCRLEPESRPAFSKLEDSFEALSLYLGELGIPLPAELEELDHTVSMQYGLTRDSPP
T2 sequence (Q96SW2 whole entry): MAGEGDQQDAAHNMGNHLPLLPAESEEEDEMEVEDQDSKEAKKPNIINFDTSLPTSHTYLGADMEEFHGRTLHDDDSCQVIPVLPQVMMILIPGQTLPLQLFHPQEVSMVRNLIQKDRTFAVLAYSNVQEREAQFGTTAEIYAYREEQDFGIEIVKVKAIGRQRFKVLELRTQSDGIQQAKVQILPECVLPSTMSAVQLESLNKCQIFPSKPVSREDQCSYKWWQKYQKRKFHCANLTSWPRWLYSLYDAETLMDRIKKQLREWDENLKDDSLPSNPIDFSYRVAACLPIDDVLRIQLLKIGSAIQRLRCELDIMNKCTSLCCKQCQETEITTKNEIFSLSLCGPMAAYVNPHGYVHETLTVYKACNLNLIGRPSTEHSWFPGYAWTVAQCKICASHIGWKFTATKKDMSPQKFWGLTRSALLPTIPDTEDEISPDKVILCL
T2 sequence (Q16531 whole entry partner): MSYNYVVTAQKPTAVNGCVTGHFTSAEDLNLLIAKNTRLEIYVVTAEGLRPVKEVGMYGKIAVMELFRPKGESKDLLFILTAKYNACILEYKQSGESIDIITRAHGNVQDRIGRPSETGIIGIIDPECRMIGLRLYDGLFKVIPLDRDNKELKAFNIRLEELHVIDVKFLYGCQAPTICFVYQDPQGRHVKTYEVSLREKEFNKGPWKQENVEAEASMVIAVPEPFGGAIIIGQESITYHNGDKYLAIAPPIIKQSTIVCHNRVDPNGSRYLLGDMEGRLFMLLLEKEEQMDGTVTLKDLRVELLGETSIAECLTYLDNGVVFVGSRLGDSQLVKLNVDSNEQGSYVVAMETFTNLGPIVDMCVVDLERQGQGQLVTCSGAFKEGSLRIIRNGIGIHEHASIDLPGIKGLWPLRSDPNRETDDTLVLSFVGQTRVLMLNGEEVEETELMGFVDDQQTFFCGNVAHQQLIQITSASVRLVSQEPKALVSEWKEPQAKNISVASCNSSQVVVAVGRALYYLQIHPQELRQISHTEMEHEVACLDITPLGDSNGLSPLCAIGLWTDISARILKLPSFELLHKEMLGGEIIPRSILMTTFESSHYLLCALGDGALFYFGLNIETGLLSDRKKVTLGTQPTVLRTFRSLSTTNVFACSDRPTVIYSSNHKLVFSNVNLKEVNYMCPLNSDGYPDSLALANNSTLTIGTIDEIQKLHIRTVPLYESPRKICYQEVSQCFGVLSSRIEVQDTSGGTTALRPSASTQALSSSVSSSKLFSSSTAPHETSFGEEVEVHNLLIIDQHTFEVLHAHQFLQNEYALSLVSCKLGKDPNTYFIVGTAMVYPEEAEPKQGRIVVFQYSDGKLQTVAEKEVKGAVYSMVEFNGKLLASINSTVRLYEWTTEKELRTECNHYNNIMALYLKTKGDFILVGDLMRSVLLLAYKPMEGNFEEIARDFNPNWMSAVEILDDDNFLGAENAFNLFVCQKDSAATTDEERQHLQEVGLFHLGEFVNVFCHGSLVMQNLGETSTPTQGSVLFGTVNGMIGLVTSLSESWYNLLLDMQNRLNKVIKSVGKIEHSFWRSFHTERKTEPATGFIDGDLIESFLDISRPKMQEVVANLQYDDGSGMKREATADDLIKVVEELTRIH

The term EC50 denotes the concentration at which the effect is half-maximal. A lower EC50 goes with a more potent agent. `Cc1c(OCc2cn(CCCCC(=O)Nc3ncc(-c4cc(C(F)F)nn4-c4c(Cl)cccc4Cl)s3)nn2)cccc1N1CCC(=O)NC1=O` [22b]: on LIMK1, the “LIMK1 degradation (Western blot)” value is given as “LIMK1 protein levels remained unaffected”. Also, a half-maximal effect in series [1] (EC50) was put at 0.077 µM. For the same molecule, in the series on HEK293T cells, the cytotoxic effects result is reported as “no cytotoxic effects”.
